# According to patent US10499645B2, “Nematicidal aqueous suspension concentrate compositions” (Monsanto Technology LLC, priority 2012, dated 2019):
# Experiments:
# Assay type in all cases: physicochemical
# [1] = Grinding analysis (ball mill, XRD); settings: ball mill 2 minutes at 4800 oscillations per minute
# Procedure: Batches of 3-phenyl-5-(thiophen-2-yl)-1,2,4-oxadiazole polymorphic Forms I and II were ground using a CRESCENT WIG-L-BUG ball mill for 2 minutes at 4800 oscillations per minute (3.2 m/s) in two separate experiments. […] The Form II used in this experiment was obtained by recrystallization from the melt of Form I, as described in Example 14, above, […]
# [2] = Mechanical pressure analysis (CARVER press, XRD); settings: approximately 15,000 psi for approximately 20 seconds
# Procedure: Batches of 3-phenyl-5-(thiophen-2-yl)-1,2,4-oxadiazole polymorphic Forms I and II were placed in a CARVER press and compressed at approximately 15,000 psi for approximately 20 seconds in two separate experiments. XRD analysis was performed on the samples. The resulting XRD pattern matched the starting material in both experiments, as shown in FIGS. 5A and 5B for Forms I and II, respectively. […] The Form II used in this experiment was obtained by recrystallization from the melt of Form I, as described in Example 14, above.
# [3] = Storage stability of polymorphs (XRD)
# [4] = Non-competitive slurry experiments (XRD); settings: ambient temperature
# Procedure: In addition to the solvent recrystallization experiments, non-competitive slurry experiments were performed to search for new solid-state forms of 3-phenyl-5-(thiophen-2-yl)-1,2,4-oxadiazole. These experiments rely on solubility differences of different polymorphic forms (if the compound exists in different polymorphic forms).
# Essentially, when a solid is mixed with solvent to create slurry, a saturated solution eventually results. The solution is saturated with respect to the polymorphic form dissolved. […] In addition, noncompetitive slurry experiments are often useful in identifying solvents that form solvates with the compound.
# The slurry experiments were performed by exposing excess supplied material to solvents and agitating the resulting suspensions for several days at ambient temperature. The solids were filtered using a WHATMAN Grade 1 apparatus (11 μm pore size) and analyzed by XRD to determine the resulting form(s). To avoid possible desolvation or physical change after isolation, the samples were not dried before X-ray analysis.
structure (smiles),measurement,setting,value
"c1ccc(-c2noc(-c3cccs3)n2)cc1 [Form I, 3-phenyl-5-(thiophen-2-yl)-1,2,4-oxadiazole]",polymorphic transformation on grinding,[1],no transformation
same,change of polymorphic form under pressure,[2],did not reveal any changes in the polymorphic form
same,storage stability / hydrate formation (XRD),"[3]; 75 and 84% RH, ambient temperature, 4 weeks, open Petri dishes",does not form a hydrate and appears to be thermodynamically stable over time at ambient conditions
same,form resulting from slurry experiments (summary),[4]; approximately 12 days of slurring,Form I
"c1ccc(-c2noc(-c3cccs3)n2)cc1 [Form II, 3-phenyl-5-(thiophen-2-yl)-1,2,4-oxadiazole]",polymorphic transformation on grinding,[1],transformed to Form I
same,change of polymorphic form under pressure,[2],did not reveal any changes in the polymorphic form
same,storage stability (XRD),"[3]; scintillation vial in a hood, ambient conditions, approximately 6 days",showed signs of transformation to Form I
same,form resulting from slurry experiments (summary),[4]; approximately 7 days of slurring,Form I
